Laboratory results from patent US8653087B2, “Pyrido [5, 4-D] pyrimidines as cell proliferation inhibitors” (Boehringer Ingelheim International GmbH, priority 2008, dated 2014).

The molecules below were run against B-Raf (V600E)-kinase (Homo sapiens (Human), UniProt P15056, V600E) (assay: Kinase test B-RAF (V600E)). Conditions: B-RAF (V600E) kinase test, 250 μM ATP.
Format: biochemical
How it was run: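 Read-out is DELFIA europium TRF of phospho-MEK (Ser217/221) on biotinylated MEK1 bound to streptavidin plates, IC50 from dose-response. Reaction ran 60 min at RT with 250 μM ATP, after a 24 h RT preincubation of compound with B-Raf (V600E) kinase, 5% DMSO final.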

Chain of B-Raf (V600E)-kinase (P15056 whole entry V600E): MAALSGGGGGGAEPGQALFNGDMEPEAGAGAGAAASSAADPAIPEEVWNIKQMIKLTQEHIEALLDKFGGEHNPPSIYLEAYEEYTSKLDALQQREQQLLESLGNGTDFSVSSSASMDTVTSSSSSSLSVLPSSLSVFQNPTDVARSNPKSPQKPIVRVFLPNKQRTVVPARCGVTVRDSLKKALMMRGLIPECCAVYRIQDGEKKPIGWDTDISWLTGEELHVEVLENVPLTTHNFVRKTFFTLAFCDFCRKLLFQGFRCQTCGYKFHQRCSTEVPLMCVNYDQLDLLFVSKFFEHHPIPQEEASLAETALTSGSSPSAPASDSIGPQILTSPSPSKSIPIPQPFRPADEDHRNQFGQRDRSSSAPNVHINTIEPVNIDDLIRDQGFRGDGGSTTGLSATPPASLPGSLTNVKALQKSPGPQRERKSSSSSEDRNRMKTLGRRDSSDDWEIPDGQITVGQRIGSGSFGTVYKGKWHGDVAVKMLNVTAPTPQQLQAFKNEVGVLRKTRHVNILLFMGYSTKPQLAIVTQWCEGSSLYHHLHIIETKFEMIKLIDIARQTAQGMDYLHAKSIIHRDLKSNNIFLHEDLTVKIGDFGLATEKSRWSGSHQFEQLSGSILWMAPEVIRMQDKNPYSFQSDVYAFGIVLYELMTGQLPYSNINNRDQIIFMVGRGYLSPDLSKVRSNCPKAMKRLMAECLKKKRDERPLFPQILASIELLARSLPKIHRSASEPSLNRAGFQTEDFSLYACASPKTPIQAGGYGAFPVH

First: Cc1ccc(C(=O)Nc2cc(OCCN(C)C)cc(C(F)(F)F)c2)cc1Nc1ncnc2cnc(NCCF)nc12 [III-144]
Second: COCCNc1ncc2ncnc(Nc3cc(C(=O)Nc4cc(OCCN(C)C)cc(C(F)(F)F)c4)ccc3C)c2n1 [III-151]
The IC50 of the first is lower: less than 1 nM for the first, 1 nM for the second. The first is the more potent here.

Cc1ccc(C(=O)Nc2cc(OCCN(C)C)cc(C(F)(F)F)c2)cc1Nc1ncnc2cnc(N3CCC(F)CC3)nc12 [III-145] and Cc1ccc(C(=O)Nc2cc(OCCN(C)C)cc(C(F)(F)F)c2)cc1Nc1ncnc2cnc(N3CCCC3)nc12 [III-150] are the same in IC50: 2 nM for the first, 2 nM for the second.

Cc1ccc(C(=O)Nc2cc(OCCN(C)C)cc(C(F)(F)F)c2)cc1Nc1ncnc2cnc(NCC3CCOC3)nc12 (stereo not shown) [III-146] and Cc1ccc(C(=O)Nc2cc(OCCN(C)C)cc(C(F)(F)F)c2)cc1Nc1ncnc2cnc(NC3CC3)nc12 [III-152] cannot be ordered by IC50: less than 1 nM for the first, less than 1 nM for the second.

Going from Cc1ccc(C(=O)Nc2cc(OCCN(C)C)cc(C(F)(F)F)c2)cc1Nc1ncnc2cnc(NCc3ccccc3)nc12 [III-147] to CNc1ncc2ncnc(Nc3cc(C(=O)Nc4cc(OCCN(C)C)cc(C(F)(F)F)c4)ccc3C)c2n1 [III-156], the IC50 falls from 1 nM to less than 1 nM. The second is the more potent here.

First: Cc1ccc(C(=O)Nc2cc(OCCN(C)C)cc(C(F)(F)F)c2)cc1Nc1ncnc2cnc(N3CCOCC3)nc12 [III-149]
Second: Cc1ccc(C(=O)Nc2cc(OCCN(C)C)cc(C(F)(F)F)c2)cc1Nc1ncnc2cnc(N(C)C)nc12 [III-155]
The IC50 of the first is lower: less than 1 nM for the first, 2 nM for the second. The first is the more potent here.

Going from Cc1ccc(C(=O)Nc2cc(OCCN(C)C)cc(C(F)(F)F)c2)cc1Nc1ncnc2cnc(NCC(C)C)nc12 [III-153] to CCN(CC)c1ncc2ncnc(Nc3cc(C(=O)Nc4cc(OCCN(C)C)cc(C(F)(F)F)c4)ccc3C)c2n1 [III-157], the IC50 rises from less than 1 nM to 3 nM. The first is the more potent here.

Going from Cc1ccc(C(=O)Nc2cc(N(C)CCN(C)C)cc(C(F)(F)F)c2)cc1Nc1ncnc2cnc(NCc3cccnc3)nc12 [III-168] to Cc1ccc(C(=O)Nc2cc(N(C)CCN(C)C)cc(C(F)(F)F)c2)cc1Nc1ncnc2cnc(NCc3ccncc3)nc12 [III-173], the IC50 rises from less than 1 nM to 1 nM. The first is the more potent here.

First: Cc1ccc(C(=O)Nc2cc(N(C)CCN(C)C)cc(C(F)(F)F)c2)cc1Nc1ncnc2cnc(NCc3ccccn3)nc12 [III-172]
Second: Cc1ccc(C(=O)NCc2cccc(C(F)(F)F)c2)cc1Nc1ncnc2cnc(N(C)CCN(C)C)nc12 [III-200]
The IC50 of the first is 490-fold lower: 2 nM for the first, 971 nM for the second.

Cc1ccc(C(=O)NCC2CCOC2)cc1Nc1ncnc2cnc(N3CCCN(C)CC3)nc12 (stereo not shown) [III-179] and Cc1ccc(C(=O)NCC2CCOC2)cc1Nc1ncnc2cnc(N3CCN(C)CC3)nc12 (stereo not shown) [III-187] cannot be ordered by IC50: greater than 7000 nM for the first, greater than 2000 nM for the second.

Cc1ccc(C(=O)Nc2cccc(C(C)(C)C#N)c2)cc1Nc1ncnc2cnc(N3CCCN(C)CC3)nc12 [III-180] and Cc1ccc(C(=O)Nc2cccc(C(C)(C)C#N)c2)cc1Nc1ncnc2cnc(N3CCCCC3)nc12 [III-213] are the same in IC50: 3 nM for the first, 3 nM for the second.

COc1c(NC(=O)c2ccc(C)c(Nc3ncnc4cnc(N5CCCN(C)CC5)nc34)c2)cc(C(C)(C)C)cc1NS(C)(=O)=O [III-181] and COc1c(NC(=O)c2ccc(C)c(Nc3ncnc4cnc(N(C)CCN(C)C)nc34)c2)cc(C(C)(C)C)cc1NS(C)(=O)=O [III-199] are within 1.5-fold of each other in IC50: 17 nM for the first, 23 nM for the second.

Going from Cc1ccc(C(=O)NCc2cccc(C(F)(F)F)c2)cc1Nc1ncnc2cnc(N3CCCN(C)CC3)nc12 [III-182] to Cc1ccc(C(=O)NCc2cccc(C(F)(F)F)c2)cc1Nc1ncnc2cnc(N3CCN(C)CC3)nc12 [III-188], the IC50 falls from 245 nM to 104 nM (2.4-fold). The second is the more potent here.

Cc1ccc(C(=O)NC2CCCCC2)cc1Nc1ncnc2cnc(N3CCCN(C)CC3)nc12 [III-183] and Cc1ccc(C(=O)NC2CCCCC2)cc1Nc1ncnc2cnc(N3CCN(C)CC3)nc12 [III-189] cannot be ordered by IC50: greater than 15000 nM for the first, greater than 15000 nM for the second.

Going from Cc1ccc(C(=O)Nc2ccccc2)cc1Nc1ncnc2cnc(N3CCCN(C)CC3)nc12 [III-184] to Cc1ccc(C(=O)Nc2ccccc2)cc1Nc1ncnc2cnc(N3CCN(C)CC3)nc12 [III-190], the IC50 falls from 2880 nM to 1540 nM (1.9-fold).

Cc1ccc(C(=O)NC2CC2)cc1Nc1ncnc2cnc(N3CCCN(C)CC3)nc12 [III-185] and Cc1ccc(C(=O)NC2CC2)cc1Nc1ncnc2cnc(N3CCN(C)CC3)nc12 [III-191] cannot be ordered by IC50: greater than 15000 nM for the first, greater than 15000 nM for the second.

First: Cc1ccc(C(=O)Nc2ccc3c(c2)C(C)(C)C(=O)N3CCN2CCCC2)cc1Nc1ncnc2cnc(N3CCN(C)CC3)nc12 [III-186]
Second: Cc1ccc(C(=O)Nc2ccc3c(c2)C(C)(C)C(=O)N3CCN2CCCC2)cc1Nc1ncnc2cnc(N(C)CCN(C)C)nc12 [III-196]
The IC50 of the first is 1.6-fold higher: 26 nM for the first, 16 nM for the second.

Cc1ccc(C(=O)NCC2CCOC2)cc1Nc1ncnc2cnc(N3CCOCC3)nc12 (stereo not shown) [III-193] and Cc1ccc(C(=O)NCC2CCOC2)cc1Nc1ncnc2cnc(N3CCCCC3)nc12 (stereo not shown) [III-212] cannot be ordered by IC50: greater than 15000 nM for the first, greater than 15000 nM for the second.

Cc1ccc(C(=O)NC2CC2)cc1Nc1ncnc2cnc(N3CCOCC3)nc12 [III-194] and Cc1ccc(C(=O)NC2CC2)cc1Nc1ncnc2cnc(N3CC[C@@H](F)C3)nc12 [III-210] cannot be ordered by IC50: greater than 2000 nM for the first, greater than 2000 nM for the second.

First: Cc1ccc(C(=O)Nc2cccc(S(=O)(=O)N(C)C)c2)cc1Nc1ncnc2cnc(N(C)CCN(C)C)nc12 [III-195]
Second: Cc1ccc(C(=O)Nc2cccc(C(C)(C)C#N)c2)cc1Nc1ncnc2cnc(N(C)CCN(C)C)nc12 [III-198]
The IC50 of the first is 5.4-fold higher: 59 nM for the first, 11 nM for the second.

Cc1ccc(C(=O)NCC2CCOC2)cc1Nc1ncnc2cnc(N(C)CCN(C)C)nc12 (stereo not shown) [III-197] and Cc1ccc(C(=O)NC2CC2)cc1Nc1ncnc2cnc(N(C)CCN(C)C)nc12 [III-203] cannot be ordered by IC50: greater than 15000 nM for the first, greater than 10000 nM for the second.

Cc1ccc(C(=O)NC2CCCCC2)cc1Nc1ncnc2cnc(N(C)CCN(C)C)nc12 [III-201] and Cc1ccc(C(=O)Nc2ccccc2)cc1Nc1ncnc2cnc(N(C)CCN(C)C)nc12 [III-202] cannot be ordered by IC50: greater than 10000 nM for the first, greater than 2000 nM for the second.

Cc1ccc(C(=O)NCC2CCOC2)cc1Nc1ncnc2cnc(N3CC[C@@H](F)C3)nc12 (stereo partly shown) [III-205] and Cc1ccc(C(=O)NC2CCCCC2)cc1Nc1ncnc2cnc(N3CC[C@@H](F)C3)nc12 [III-208] cannot be ordered by IC50: greater than 2000 nM for the first, greater than 2000 nM for the second.

First: Cc1ccc(C(=O)Nc2cccc(C(C)(C)C#N)c2)cc1Nc1ncnc2cnc(N3CC[C@@H](F)C3)nc12 [III-206]
Second: Cc1ccc(C(=O)Nc2ccccc2)cc1Nc1ncnc2cnc(N3CC[C@@H](F)C3)nc12 [III-209]
The IC50 of the first is 81-fold lower: 2 nM for the first, 162 nM for the second. The first is the more potent here.

First: Cc1ccc(C(=O)NCc2cccc(C(F)(F)F)c2)cc1Nc1ncnc2cnc(N3CC[C@@H](F)C3)nc12 [III-207]
Second: Cc1ccc(C(=O)NCc2cccc(C(F)(F)F)c2)cc1Nc1ncnc2cnc(N3CCCCC3)nc12 [III-214]
The IC50 of the first is 5.1-fold lower: 11 nM for the first, 56 nM for the second. The first is the more potent here.

Compared with Cc1ccc(C(=O)NC2CCCCC2)cc1Nc1ncnc2cnc(N3CCCCC3)nc12 [III-215], Cc1ccc(C(=O)Nc2ccc(F)c(C(F)(F)F)c2)cc1Nc1ncnc2cnc(N3CCCN(C)CC3)nc12 [III-216] is lower in IC50: greater than 10000 nM for the first, 3 nM for the second.

First: Cc1ccc(C(=O)Nc2cccc(C(F)(F)F)c2)cc1Nc1ncnc2cnc(N3CCCN(C)CC3)nc12 [III-217]
Second: Cc1ccc(C(=O)Nc2ccc(Cl)c(C(F)(F)F)c2)cc1Nc1ncnc2cnc(N3CCCN(C)CC3)nc12 [III-220]
The IC50 of the first is 2.5-fold lower: 2 nM for the first, 5 nM for the second. The first is the more potent here.

Going from Cc1ccc(C(=O)NCc2ccc(C(C)(C)C)cc2)cc1Nc1ncnc2cnc(N3CCCN(C)CC3)nc12 [III-218] to Cc1ccc(C(=O)NCc2ccc(C(F)(F)F)cc2)cc1Nc1ncnc2cnc(N3CCCN(C)CC3)nc12 [III-221], the IC50 falls from 293 nM to 171 nM (1.7-fold).

COc1ccc(C(F)(F)F)cc1NC(=O)c1ccc(C)c(Nc2ncnc3cnc(N4CCCN(C)CC4)nc23)c1 [III-219] gave an IC50 of 8 nM.
